Results from the supplement of paper PMC8671470.

How the values were obtained:
Experiment in all cases: cell viability (% survival relative to DMSO control, bortezomib = 0%); higher = less cytotoxic
Details in all cases: 72 h
SHI-1 = test system: SHI-1
Method in brief: (§1)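 Fifteen myeloid leukaemia cell lines (10 AML, 5 CML) were seeded at a density titrated to the linear growth range. They went into 384-well plates with compounds pre-printed at 1, 10, 100, 1000 or 10000 nM in duplicate. After 72 h at 37 °C with 5% CO2, viability was read by CellTiter-Glo luminescence. Values are percent survival, with vehicle set to 100% and a 10 µM positive control to 0%, averaged over the duplicates.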

LAMA-84 = test system: LAMA-84
Method in brief: as §1

MOLM-13 = test system: MOLM-13
Method in brief: as §1

Mono-Mac-6 = test system: Mono-Mac-6
Method in brief: as §1

SMILES | cell viability (SHI-1; 1 nM) | cell viability (SHI-1; 10 nM) | cell viability (SHI-1; 100 nM) | cell viability (SHI-1; 1000 nM) | cell viability (SHI-1; 10000 nM) | cell viability (LAMA-84; 1 nM) | cell viability (LAMA-84; 10 nM) | cell viability (LAMA-84; 100 nM) | cell viability (LAMA-84; 1000 nM) | cell viability (LAMA-84; 10000 nM) | cell viability (MOLM-13; 1 nM) | cell viability (MOLM-13; 10 nM) | cell viability (MOLM-13; 100 nM) | cell viability (MOLM-13; 1000 nM) | cell viability (MOLM-13; 10000 nM) | cell viability (Mono-Mac-6; 1 nM) | cell viability (Mono-Mac-6; 10 nM) | cell viability (Mono-Mac-6; 100 nM) | cell viability (Mono-Mac-6; 1000 nM) | cell viability (Mono-Mac-6; 10000 nM)
OCCN1CCN(CCCN2c3ccccc3Sc3ccc(Cl)cc32)CC1 [Perphenazine] | 100% | 110% | 97.1% | 123% | 55.2% | 105% | 103% | 93.5% | 97.2% | 47.6% | 114% | 68.9% | 84% | 140% | 18.5% | 97.2% | 106% | 102% | 100% | 54.6%
C=CCc1ccc2c(c1O)C(=O)c1ccccc1C2=O [R162] | 101% | 99.7% | 104% | 118% | 101% | 104% | 97.2% | 94.7% | 103% | 88.7% | 94% | 107% | 106% | 136% | 99.2% | 101% | 93.4% | 103% | 123% | 115%
O=C(c1ccc(OCCN2CCCCC2)cc1)c1c(-c2ccc(O)cc2)sc2cc(O)ccc12 [Raloxifene] | 97% | 102% | 107% | 110% | 89.5% | 106% | 102% | 94.9% | 95.5% | 87.9% | 79.1% | 82.2% | 106% | 83.2% | 77% | 109% | 95.2% | 107% | 104% | 77%
NC(=O)c1ncn([C@@H]2O[C@H](CO)[C@@H](O)[C@H]2O)n1 [Ribavirin] | 105% | 112% | 111% | 111% | 111% | 84.9% | 98.2% | 101% | 110% | 89.8% | 87.6% | 88% | 84.1% | 129% | 62.9% | 92.1% | 103% | 96.4% | 101% | 112%
Nc1ncnc2c1ncn2[C@@H]1O[C@H](CSCC[C@H](N)C(=O)O)[C@@H](O)[C@H]1O [S-Adenosyl Homocysteine] | 100% | 122% | 111% | 105% | 99.9% | 105% | 110% | 100% | 99.4% | 103% | 100% | 130% | 114% | 115% | 125% | 96.7% | 101% | 96.9% | 104% | 93.7%
CCCc1nn(C)c2c(O)nc(-c3cc(S(=O)(=O)N4CCN(C)CC4)ccc3OCC)nc12 [Sildenafil] | 103% | 95% | 104% | 111% | 114% | 91.3% | 98.8% | 92.1% | 95% | 103% | 101% | 112% | 96.3% | 125% | 106% | 87.9% | 110% | 100% | 110% | 105%
Cc1coc2c1C(=O)C(=O)c1c-2ccc2c(C)cccc12 [Tanshinone I] | 110% | 88.4% | 108% | 105% | 84.2% | 104% | 105% | 101% | 108% | 95.4% | 89.8% | 103% | 127% | 94.3% | 101% | 126% | 107% | 106% | 102% | 84.7%
CCOC(=O)N1c2ccc(C(F)(F)F)cc2[C@@H](N(Cc2cc(C(F)(F)F)cc(C(F)(F)F)c2)C(=O)OC)C[C@H]1CC [Torcetrapib] | 94.8% | 105% | 132% | 114% | 99.8% | 116% | 103% | 110% | 95.6% | 110% | 95.9% | 112% | 141% | 98.3% | 63.7% | 109% | 109% | 107% | 90.8% | 78.2%
Oc1cc(Cl)ccc1Oc1ccc(Cl)cc1Cl [Triclosan] | 105% | 96% | 98.3% | 101% | 103% | 102% | 91.1% | 103% | 108% | 66.5% | 102% | 90.9% | 103% | 86.7% | 109% | 94.5% | 98.3% | 101% | 116% | 97.2%
COc1cc2c(NC3CCN(C)CC3)nc(N3CCCN(C)CC3)nc2cc1OCCCN(C)C [UNC0224] | 91.9% | 108% | 102% | 93.1% | 73.7% | 91.1% | 106% | 96.5% | 95.9% | 95.8% | 104% | 111% | 92.7% | 104% | 71.1% | 100% | 116% | 101% | 98.5% | 81.4%
CC(C)C[C@H](NC(=O)[C@@H](O)[C@H](N)Cc1ccccc1)C(=O)O [Ubenimex] | 99.4% | 104% | 93.2% | 80.5% | 91.3% | 115% | 101% | 103% | 101% | 101% | 110% | 100% | 114% | 94.8% | 94.3% | 99.5% | 116% | 96.4% | 83.1% | 90.1%
O=P(O)(O)C(O)(Cn1ccnc1)P(=O)(O)O [Zoledronic acid] | 108% | 116% | 102% | 100% | 104% | 99.5% | 104% | 100% | 98.2% | 99.2% | 99.2% | 117% | 103% | 84.5% | 99.8% | 96.7% | 104% | 91.1% | 91% | 96.7%
